Measured values published in patent US20260159536A1, “AKR1C3-ACTIVATED DNA ALKYLATING AGENT, AND MEDICAL APPLICATION THEREOF” (ASCENTAWITS PHARMACEUTICALS, LTD., priority 2021, published 2026).

Assays:
[1] = test system: huH-1; experiment: Cytotoxicity on hepatocellular carcinoma cell line huH-1; type: cell-based
Protocol: If not otherwise specified, IC50 values were measured by the following experimental methods:
a) Cells were plated for 24 hours, and then the compounds acted singly. 99 μL of growth medium was supplemented per well, and then 1 μL of 200× compound was added, gently shaken to ensure uniform mixing, and then placed in a 37° C., 5% CO2 incubator.
b) The cell plate was placed in the incubator for 72 hours.
b) 100 μL of CTG reagent (CelltiterGlo kit) was added to each well, the plate was placed in a rapid oscillator and shaken for 2 minutes, and then placed at room temperature for 30 minutes away from light.
The IC50 was calculated using GraphPad Prism 8 software and the IC50 (half inhibitory concentration) of the compounds was obtained using the following non-linear fitting formula: […]
Using the same experimental methods as described above, Compounds A, B and C were further tested for cytotoxicity against different hepatocellular carcinoma (HCC) cell lines SNU354, SNU886, MHCC97H and huH-1, and the results were shown in Table 2 below: […]

[2] = test system: human liver cancer LI6652; experiment: In vivo pharmacodynamics, liver cancer LI6652 subcutaneous xenograft PDX model; design: species or system BALB/c nude mice; details: for Relative tumor volume (x ± S) / T/C (%) / TGI (%) / Tumor volume (x ± S): 2 weeks off, 2 cycles
Protocol: The pharmacodynamic analysis of each group in liver cancer LI6652 model was performed on Day 31 after administration, and the results were shown in Table 12.

[3] = test system: HuPrime model PA1222 human pancreatic cancer; experiment: In vivo pharmacodynamics, pancreatic cancer PA1222 PDX model; details: for Tumor volume: 10 mg/kg i.v.
Protocol: The test was divided into groups of test drug Gemcitabine 120 mg/kg group, test drug Compound A 10 mg/kg and 7.5% anhydrous ethanol+7.5% polyoxyethylene (35) castor oil+85% glucose injection DSW (pH 7.4) vehicle control group, a total of 3 groups, with 5 mice per group. […] Test drug Gemcitabine (Gemcitabine) 120 mg/kg group was administered intraperitoneally, once a week for three consecutive weeks.

[4] = 1.25 mg/kg i.p. QDx5, 2 days off, Day 28
[5] = 2.5 mg/kg i.p. QDx5, 2 days off, Day 28
[6] = 5 mg/kg i.p. QDx5, 2 days off, Day 28

Which results are given for `O=[N+]([O-])c1ccc(C(OP(=O)(N2CC2)N2CC2)C(F)(F)F)cc1Oc1ccc(-c2ccc(F)cc2)c(F)c1` (racemic) [Compound A]?
IC50 ([1]; Homo sapiens, HuH-1): 0.306 µM; ratio A/B ([1]; IC50 ratio, huH-1): 1.19; ratio A/C ([1]; IC50 ratio, huH-1): 1.14; Relative tumor volume (x ± S) [2, 4]: 0.18 ± 0.07; T/C (%) [2, 4]: 1.23%; TGI (%) [2, 4]: 98.77%; Tumor volume (x ± S) [2, 4]: 24.72 ± 9.57; Tumor volume ([2]; 1.25 mg/kg i.p., Day 0): 126.30 mm^3; Tumor volume ([2]; 1.25 mg/kg i.p., Day 3): 184.11 mm^3; Tumor volume ([2]; 1.25 mg/kg i.p., Day 7): 194.19 mm^3; Tumor volume ([2]; 1.25 mg/kg i.p., Day 10): 135.63 mm^3; Tumor volume ([2]; 1.25 mg/kg i.p., Day 14): 51.98 mm^3; Tumor volume ([2]; 1.25 mg/kg i.p., Day 17): 28.94 mm^3; Tumor volume ([2]; 1.25 mg/kg i.p., Day 21): 29.42 mm^3; Tumor volume ([2]; 1.25 mg/kg i.p., Day 24): 28.38 mm^3; Tumor volume ([2]; 1.25 mg/kg i.p., Day 28): 24.72 mm^3; Tumor volume ([2]; 1.25 mg/kg i.p., Day 31): 18.12 mm^3; Relative tumor volume (x ± S) [2, 5]: 0.17 ± 0.10; T/C (%) [2, 5]: 1.16%; TGI (%) [2, 5]: 98.84%; Tumor volume (x ± S) [2, 5]: 18.28 ± 8.14; Tumor volume ([2]; 2.5 mg/kg i.p., Day 0): 126.29 mm^3; Tumor volume ([2]; 2.5 mg/kg i.p., Day 3): 179.46 mm^3; Tumor volume ([2]; 2.5 mg/kg i.p., Day 7): 189.33 mm^3; Tumor volume ([2]; 2.5 mg/kg i.p., Day 10): 145.19 mm^3; Tumor volume ([2]; 2.5 mg/kg i.p., Day 14): 43.64 mm^3; Tumor volume ([2]; 2.5 mg/kg i.p., Day 17): 29.90 mm^3; Tumor volume ([2]; 2.5 mg/kg i.p., Day 21): 21.49 mm^3; Tumor volume ([2]; 2.5 mg/kg i.p., Day 24): 17.91 mm^3; Tumor volume ([2]; 2.5 mg/kg i.p., Day 28): 18.28 mm^3; Tumor volume ([2]; 2.5 mg/kg i.p., Day 31): 5.56 mm^3; Relative tumor volume (x ± S) [2, 6]: 0.02 ± 0.02; T/C (%) [2, 6]: 0.14%; Tumor volume (x ± S) [2, 6]: 3.38 ± 3.38; Tumor volume ([2]; 5 mg/kg i.p., Day 0): 124.83 mm^3; Tumor volume ([2]; 5 mg/kg i.p., Day 3): 174.91 mm^3; Tumor volume ([2]; 5 mg/kg i.p., Day 7): 190.90 mm^3; Tumor volume ([2]; 5 mg/kg i.p., Day 10): 130.55 mm^3; Tumor volume ([2]; 5 mg/kg i.p., Day 14): 34.29 mm^3; Tumor volume ([2]; 5 mg/kg i.p., Day 17): 19.84 mm^3; Tumor volume ([2]; 5 mg/kg i.p., Day 21): 13.80 mm^3; Tumor volume ([2]; 5 mg/kg i.p., Day 24): 12.20 mm^3; Tumor volume ([2]; 5 mg/kg i.p., Day 28): 3.38 mm^3; Tumor volume ([2]; 5 mg/kg i.p., Day 31): 2.62 mm^3; relative tumor inhibition TGI (%) ([2]; 1.25, 2.5, 5 mg/kg i.p.): exceeding 98%; effect on body weight ([2]; 1.25, 2.5, 5 mg/kg, at least 28 days): no significant effect on the body weight; toxic side effects (body weight change) ([3]; 10 mg/kg i.v. QWx3): without toxic side effects; Tumor volume ([3]; Day 0): 111.50 mm^3; Tumor volume ([3]; Day 3): 117.62 mm^3; Tumor volume ([3]; Day 7): 113.91 mm^3; Tumor volume ([3]; Day 10): 107.17 mm^3; Tumor volume ([3]; Day 14): 66.08 mm^3; Tumor volume ([3]; Day 17): 42.94 mm^3; Tumor volume ([3]; Day 21): 23.22 mm^3; Tumor volume ([3]; Day 24): 21.20 mm^3; Tumor volume ([3]; Day 28): 12.51 mm^3; Relative tumor volume (x ± S) ([3]; 10 mg/kg, QWx3, i.v., Day 28): 0.10 ± 0.04; T/C (%) ([3]; 10 mg/kg, QWx3, i.v., Day 28): 2.86%; TGI (%) ([3]; 10 mg/kg, QWx3, i.v., Day 28): 97.14%; Tumor volume (x ± S) ([3]; 10 mg/kg, QWx3, i.v., Day 28): 12.51 ± 5.25
